Reference: patent US10183032B2, “Methods for treating bacterial infection” (Ball State Innovation Corporation, priority 2012, dated 2019)
Entries after “also recorded” stand apart in the source; their conditions may differ.

What was measured:
Staphylococcus aureus [1] = experiment: Assessment of bactericidal activity (HUVEC media); assay type: cell-based
Protocol: FIG. 6B illustrates that neither cytotoxicity nor bactericidal activity is detected. Cultures of Staphylococcus aureus that had been incubated with the vehicle control DMSO or with ML 141 (1 hour, 37° C., 225 rpm) were serially diluted, plated onto blood agar, and incubated (18 hours, 37° C.). Colonies were enumerated and colony forming units (CFU)/ml determined. CFU/ml were not different amongst the groups (p>0.05 by t-test; n=2/treatment). […]

Staphylococcus aureus [2] = experiment: S. aureus invasion of monocytic cell line U937, flow cytometry; assay type: cell-based; settings: pretreatment 0.05 μM, 1 hour
Protocol: FIG. 1 illustrates ML 141 limits host cell invasion. The monocytic cell line U937 was pretreated with the vehicle control dimethyl sulfoxide (DMSO) or with ML 141 (0.05 μM, 1 h) followed by infection with Alexa Fluor 488-labeled S. aureus (1 hour). The % of 488^+ cells decreased with ML 141 treatment.
Specific pharmacologic inhibition of CDC42 has been examined to determine whether it is sufficient in the inhibition of host cell invasion by S. aureus. Host cell cytotoxicity was undetectable below 30 μM in vitro. The highest concentration of ML 141 introduced in vivo without detectable toxicity was 100 mg/kg body weight [BW]. The compound was dissolved in polyethylene glycol and administered as a single intraperitoneal injection to C57BL/6 mice.

Staphylococcus aureus [3] = experiment: Intracellular S. aureus population in HUVEC 48 hours post infection, CFU; assay type: cell-based; settings: HUVEC pretreated 18 hours (1.0 μM FIG. 7; 10 μM FIG. 11), infected 1 hour
Protocol: FIG. 7 is a graph illustrating suppression of intracellular population sustained over time. Human umbilical vein endothelial cells (HUVEC) were pretreated (1.0 μM, 18 hours) with the vehicle control dimethyl sulfoxide (DMSO) or ML 141 and infected with Staphylococcus aureus (1 hour). At 48 hours, intracellular bacteria were recovered, serial dilutions incubated on tryptic soy agar and colonies enumerated. Data are presented as % control, ±SEM (*less than vehicle control; p≤0.05 by t-test; n=3-5/treatment).
FIG. 11 is a graph illustrating suppression of intracellular population sustained over time. […]
Two days prior to the assay, TSB is inoculated with S. aureus (American Type Culture Collection #29213) and incubated overnight (225 rpm, 37° C.). […] To detect the level of infection using flow cytometry, cells that have been infected with fluorescently-labeled bacteria are washed extensively with PBS, lifted from 96-well plate by incubation with trypsin, washed extensively in FACS buffer (2% BSA/0.1% sodium azide/PBS), fixed (FACS buffer containing 0.74% formaldehyde), and are counted using an Accuri flow cytometer (BD, Franklin Lakes, N.J.). They are also lifted from culture dishes using cell scrapers, pelleted, fixed (1% BSA/0.74% formaldehyde/PBS), and are counted using an Accuri flow cytometer. […]

actin stress fibers = experiment: Actin stress fibers in HUVEC during S. pyogenes infection; assay type: cell-based, human; settings: ML 141 10 μM, 18-20 h, MOI 30, 2 h
Protocol: FIG. 13 is an image depicting ML 141 decreasing actin stress fiber depolymerization during infection. HUVEC were incubated with vehicle control dimethyl sulfoxide (DMSO) or with ML 141 (10 μM) 18-20 h prior to infection with Streptococcus pyogenes at a multiplicity of infection of 30 (2 h). Actin was detected using Alexa Fluor 488 phalloidin. Data are presented as the percentage of HUVEC with no detectable actin stress fibers. 100-200 cells/treatment were evaluated from randomly selected fields. Scale bar is 50 μm (P<0.05 by χ^2 test of association).
For actin assessment, HUVEC were seeded at 6×10^5 cells/ml in 35 mm glass-bottom dishes (MatTek, Ashland, Mass.) that had been coated with Attachment Factor. HUVEC were pretreated with ML 141 or with DMSO and treated with gentamicin as described above. HUVEC were washed three times with PBS and fixed with 4% paraformaldehyde for 30 min, RT. HUVEC were gently washed four times with PBS, permeabilized and blocked with 1% BSA/0.1% Triton (Sigma-Aldrich, T8787). HUVEC were gently washed four times with PBS, probed for actin with Alexa Fluor 488 phalloidin (1:40, Life Technologies, A12379) in PBS (30 min, RT) and washed three more times with PBS. […] A total of 200 HUVEC were assessed for actin stress fiber disassembly from randomly selected fields-of-view. […]

**Q.** Which “CFU (×10^8 ± SEM), Compound (10 μM)” value (Staphylococcus aureus [1]; 1.2 × 10^8 CFU S. aureus, 1 h in HUVEC media, 10 μM) does the source give for `COc1ccc(C2CC(c3ccccc3)=NN2c2ccc(S(N)(=O)=O)cc2)cc1` (centres unmarked) [ML 141, 4-[3-(4-methoxyphenyl)-5-phenyl-3,4-dihydropyrazol-2-yl]benzenesulfonamide] here?
**A.** 8.8 ± 2.9 ×10^8 CFU

**Q.** And the “Bactericidal activity (in words)” value (Staphylococcus aureus [1]; S. aureus incubated 1 h with compound, FIG. 6B, Tables 6 and 7)?
**A.** not detected

**Q.** What about the “invasion by S. aureus (% of 488+ cells)” value (Staphylococcus aureus [2]) of the same compound?
**A.** decreased invasion

**Q.** What about the “viable intracellular bacteria recovered 48 hours post-infection” value (Staphylococcus aureus [3]) of the same compound?
**A.** diminished the number of viable bacteria recovered; also recorded: lower

**Q.** What about the “reordering of actin stress fibers during S. pyogenes infection” value (actin stress fibers) of the same compound?
**A.** less reordering of actin stress fibers
